Measured values published in patent publication US20050020553A1, “Prevention of miscarriage with immunomodulating non-endogenous gestagen compounds” (Solvay Pharmaceuticals GmbH, priority 2001, published 2005).

How the values were obtained:
[1] = tested on: Th1 cytokine production to trophoblast; settings: women with recurrent pregnancy loss; Choi et al., Human Reproduction 15/1 (2000); cited from earlier work
pregnant mice = assay: Murine stress-induced (ultrasound) abortion model; format: in vivo
From the text: The results of the pharmacological test method given above can also be confirmed in an in vivo test model involving pregnant mice. […] Pregnant mice were exposed to ultrasound on day 5 of gestation. This stress increased the abortion rate of these mice from around 12% to 44%. Treatment with dydrogesterone reduced the abortion in a dose-related manner to as low as 5%.

[2] = tested on: peripheral blood mononuclear cells (=PBMC); assay: Mitogen-induced stimulation of PBMC from women with unexplained habitual abortion, cytokine levels by ELISA; format: cell-based, human (women); settings: for levels of IL-4 / levels of IL-6 / production of the Th1 cytokine IFN-gamma: PHA-stimulated PBMC from women with unexplained habitual abortion, 96 hours in culture, ELISA
From the text: The effects of dydrogesterone on Th1 and Th2 cytokine profiles produced by mitogen-stimulated peripheral blood mononuclear cells (=PBMC) were established. The effects of dydrogesterone on Th1 and Th2 cytokine production were investigated in peripheral blood lymphocytes from women with unexplained habitual abortion. The peripheral mononuclear cells were stimulated with mitogen (phytohaemagglutinin) in vitro, in the presence and absence of dydrogesterone. The levels of cytokines secreted were measured after 96 hours in culture. […] Several studies have pointed to a deviation of cytokine profiles in women when during pregnancy. Pregnancy is associated with a shift towards Th2 bias, evinced by changes in peripheral T cells, by cytokine production by peripheral lymphocytes and by cytokine changes at the maternal-fetal interface. Unexplained recurrent spontaneous abortion (URSA) seems to be associated with a stronger bias towards Th1 cytokines. Women who have earlier been gone through URSA may therefore be regarded as a pre-selected group of patients that will typically respond to an immunological stimulation by showing a Th1 dominated pattern of immune response. The pharmacological test was therefore performed with a suitable URSA group which comprised of women admitted with spontaneous abortion for evacuation, (i) who have had at least two previous unexplained miscarriages, (ii) who were currently undergoing at least a 3rd abortion and (iii) who had been fully investigated. The relationship between habitual abortion and cytokine production response in 54 women with normal pregnancy (and at least 3 previous normal pregnancies) and 23 women with a history of habitual abortion of unexplained aetiology (URSA group) has been investigated. Peripheral blood was obtained by venipuncture from the abortion group on the day of abortion. PBMC is separated by Ficoll-paque (Pharmacia Biotech, Sweden) density gradient centrifugation, suspended in RPMI medium (=“Roswell Park Memorial Institute”-medium; obtained from GIBCO/BRL, USA) containing 10% fetal calf serum, aliquoted into 96 well tissue culture plates at a density of 100.000 cells per well and then stimulated with the mitogen phytohemagglutinin (=PHA, Sigma Chemicals, USA) at a concentration of […] for a period of 96 hours, with autologous placental antigens or with trophoblast antigens. Progesterone, dydrogesterone (Duphaston®) and RU486 (=mifepristone) was added in different combinations as described below. Progesterone was tested at concentrations of […]. RU486 was tested at equivalent concentrations. Culture supernatants were harvested at 96 hours for determination of the levels of cytokines secreted by the PBMC into the supernatants. Cytokine levels were determined in the supernatants by enzyme-linked immunosorbent assay (=ELISA). Each sample was tested in the following manner: • PBMC+mitogen • PBMC+mitogen+progesterone • PBMC+mitogen+progesterone+RU486 • PBMC+mitogen+dydrogesterone • PBMC+mitogen+dydrogesterone+RU486 • PBMC+mitogen+Carrier • PBMC+mitogen+Carrier+RU486 Determination of cytokine levels by ELISA: Th1 cytokines TNF-α and IFN-γ, and Th2 cytokines IL-4, IL-6 and IL-10 were evaluated in these samples by ELISA using kits that were obtained from Immunotech SA, France. These consisted of “sandwich ELISA”. Briefly, the first step leads to the capture of the relevant cytokine by monoclonal anti-cytokine antibodies bound to the wells of microtiter plates. In the second step, a second biotinylated monoclonal is added together with streptavidin-enzyme (peroxidase or alkaline phosphatase) conjugate. The biotinylated antibody binds to the solid phase antibody-antigen complex, and in turn, binds the conjugate. After incubation the wells are washed and the binding of the streptavidin-enzyme via biotin is followed by the addition of a chromogenic substrate. The intensity of the coloration produced is proportional to the concentration of the cytokine in the sample. […]

[3] = in vivo; cited from earlier work
[4] = biological target: T1, human progesterone receptor (Homo sapiens, UniProt P06401); settings: cited from earlier work
T1 sequence (P06401 1-933): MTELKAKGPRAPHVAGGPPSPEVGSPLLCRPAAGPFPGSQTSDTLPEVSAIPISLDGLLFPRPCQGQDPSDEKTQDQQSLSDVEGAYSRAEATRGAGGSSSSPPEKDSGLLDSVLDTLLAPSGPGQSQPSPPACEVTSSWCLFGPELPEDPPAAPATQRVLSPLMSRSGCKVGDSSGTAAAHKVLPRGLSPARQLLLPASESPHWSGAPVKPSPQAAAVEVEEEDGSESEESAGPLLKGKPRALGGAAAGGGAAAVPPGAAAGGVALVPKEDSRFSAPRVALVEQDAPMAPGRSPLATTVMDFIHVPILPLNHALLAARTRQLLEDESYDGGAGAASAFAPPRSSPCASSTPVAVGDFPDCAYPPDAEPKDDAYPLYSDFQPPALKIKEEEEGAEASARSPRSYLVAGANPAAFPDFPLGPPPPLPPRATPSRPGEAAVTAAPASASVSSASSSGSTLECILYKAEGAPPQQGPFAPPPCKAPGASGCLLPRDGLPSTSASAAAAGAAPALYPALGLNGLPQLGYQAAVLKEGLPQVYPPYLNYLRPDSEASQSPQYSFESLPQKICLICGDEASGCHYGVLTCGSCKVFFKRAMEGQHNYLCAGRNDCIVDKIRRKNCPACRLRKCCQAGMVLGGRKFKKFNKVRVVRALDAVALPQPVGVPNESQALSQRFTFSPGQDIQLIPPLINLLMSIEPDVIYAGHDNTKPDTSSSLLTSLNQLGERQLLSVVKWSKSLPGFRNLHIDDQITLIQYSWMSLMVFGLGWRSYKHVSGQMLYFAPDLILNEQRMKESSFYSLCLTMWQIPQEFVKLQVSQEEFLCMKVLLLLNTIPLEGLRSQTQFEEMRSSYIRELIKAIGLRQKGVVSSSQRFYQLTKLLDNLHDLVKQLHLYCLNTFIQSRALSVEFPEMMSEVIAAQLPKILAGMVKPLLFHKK

[5] = ex-vivo, women with spontaneous abortion and habitual abortion

| Compound | in-vitro embryotoxic Th1 cytokine production to trophoblast [1] | Th1/Th2 cytokine production (pregnant mice; murine stress-induced abortion model) | level of IL-4 (pregnant mice; pregnant mice exposed to ultrasound on day 5 of gestation) | abortion rate (pregnant mice; pregnant mice exposed to ultrasound on day 5 of gestation, stress raised rate from around 12% to 44%, dose-related) | levels of IL-4 [2] | levels of IL-6 [2] | production of the Th1 cytokine IFN-gamma [2] | levels of IL-4 ([2]; listed as Dydrogesterone) | levels of IL-6 ([2]; listed as Dydrogesterone) | production of the Th1 cytokine IFN-gamma ([2]; listed as Dydrogesterone) | Th1/Th2 bias [2, 5] | activity of lymphocytes [2, 5] | release of progesterone induced blocking factor (PIBF) [2, 5] | androgenic effects in the mother (hirsutism, voice changes, acne) [3] | masculinizing effect on the female fetus [3] | selectivity as progesterone receptor agonist [4] |
| --- | --- | --- | --- | --- | --- | --- | --- | --- | --- | --- | --- | --- | --- | --- | --- | --- |
| CC(=O)[C@H]1CC[C@H]2[C@@H]3CCC4=CC(=O)CC[C@]4(C)[C@H]3CC[C@]12C [progesterone] | inhibits |  |  |  |  |  |  |  |  |  |  |  |  |  |  |  |
| CC(=O)[C@H]1CC[C@H]2[C@@H]3C=CC4=CC(=O)CC[C@@]4(C)[C@@H]3CC[C@]12C [dydrogesterone] |  | shift from Th1 to Th2-cytokine production | increased level | ≥ 5% | marked increase | marked increase | reduction | increased | increased | strongly suppressed | shift from a Th1 towards a Th2 bias | reduced the activity of lymphocytes | increased release | no androgenic effects | no masculinizing effect | highly selective progesterone receptor agonist |
